Assay results reported in ChEMBL document CHEMBL1134574, “Synthesis and characterization of non-steroidal ligands for the glucocorticoid receptor: selective quinoline derivatives with prednisolone-equivalent functional activity” (J Med Chem, 2001).

Experiments:
Androgen receptor = biological target: T1, Androgen receptor (Homo sapiens, UniProt P10275); assay: Binding affinity for androgen receptor
T1 sequence (P10275 whole entry): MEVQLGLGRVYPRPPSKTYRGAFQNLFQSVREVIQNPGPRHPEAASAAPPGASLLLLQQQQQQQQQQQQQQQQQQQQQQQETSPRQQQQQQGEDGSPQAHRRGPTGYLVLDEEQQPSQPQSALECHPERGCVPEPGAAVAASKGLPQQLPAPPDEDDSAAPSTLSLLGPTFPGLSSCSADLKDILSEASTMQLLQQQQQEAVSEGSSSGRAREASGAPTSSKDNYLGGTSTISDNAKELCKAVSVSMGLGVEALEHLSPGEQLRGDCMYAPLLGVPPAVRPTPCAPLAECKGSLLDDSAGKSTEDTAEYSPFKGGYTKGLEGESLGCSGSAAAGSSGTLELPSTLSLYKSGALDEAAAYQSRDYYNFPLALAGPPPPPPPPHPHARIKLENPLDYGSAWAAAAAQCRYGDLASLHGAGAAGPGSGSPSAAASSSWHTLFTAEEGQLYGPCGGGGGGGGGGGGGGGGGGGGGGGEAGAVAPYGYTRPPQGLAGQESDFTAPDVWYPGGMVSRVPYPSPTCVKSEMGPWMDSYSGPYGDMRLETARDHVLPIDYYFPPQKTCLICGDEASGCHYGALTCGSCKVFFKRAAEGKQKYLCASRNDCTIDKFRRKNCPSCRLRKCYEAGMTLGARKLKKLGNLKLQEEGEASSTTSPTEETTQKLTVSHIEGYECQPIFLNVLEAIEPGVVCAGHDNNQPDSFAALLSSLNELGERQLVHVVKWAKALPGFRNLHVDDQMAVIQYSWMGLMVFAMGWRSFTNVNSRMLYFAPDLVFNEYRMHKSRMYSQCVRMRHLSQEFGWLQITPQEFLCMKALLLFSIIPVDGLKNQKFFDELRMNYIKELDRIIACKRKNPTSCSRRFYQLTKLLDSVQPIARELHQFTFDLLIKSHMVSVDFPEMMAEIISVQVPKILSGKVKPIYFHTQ

[1] = biological target: T2, Mineralocorticoid receptor (Homo sapiens, UniProt P08235); assay: Binding affinity for mineralocorticoid receptor
T2 sequence (P08235 whole entry): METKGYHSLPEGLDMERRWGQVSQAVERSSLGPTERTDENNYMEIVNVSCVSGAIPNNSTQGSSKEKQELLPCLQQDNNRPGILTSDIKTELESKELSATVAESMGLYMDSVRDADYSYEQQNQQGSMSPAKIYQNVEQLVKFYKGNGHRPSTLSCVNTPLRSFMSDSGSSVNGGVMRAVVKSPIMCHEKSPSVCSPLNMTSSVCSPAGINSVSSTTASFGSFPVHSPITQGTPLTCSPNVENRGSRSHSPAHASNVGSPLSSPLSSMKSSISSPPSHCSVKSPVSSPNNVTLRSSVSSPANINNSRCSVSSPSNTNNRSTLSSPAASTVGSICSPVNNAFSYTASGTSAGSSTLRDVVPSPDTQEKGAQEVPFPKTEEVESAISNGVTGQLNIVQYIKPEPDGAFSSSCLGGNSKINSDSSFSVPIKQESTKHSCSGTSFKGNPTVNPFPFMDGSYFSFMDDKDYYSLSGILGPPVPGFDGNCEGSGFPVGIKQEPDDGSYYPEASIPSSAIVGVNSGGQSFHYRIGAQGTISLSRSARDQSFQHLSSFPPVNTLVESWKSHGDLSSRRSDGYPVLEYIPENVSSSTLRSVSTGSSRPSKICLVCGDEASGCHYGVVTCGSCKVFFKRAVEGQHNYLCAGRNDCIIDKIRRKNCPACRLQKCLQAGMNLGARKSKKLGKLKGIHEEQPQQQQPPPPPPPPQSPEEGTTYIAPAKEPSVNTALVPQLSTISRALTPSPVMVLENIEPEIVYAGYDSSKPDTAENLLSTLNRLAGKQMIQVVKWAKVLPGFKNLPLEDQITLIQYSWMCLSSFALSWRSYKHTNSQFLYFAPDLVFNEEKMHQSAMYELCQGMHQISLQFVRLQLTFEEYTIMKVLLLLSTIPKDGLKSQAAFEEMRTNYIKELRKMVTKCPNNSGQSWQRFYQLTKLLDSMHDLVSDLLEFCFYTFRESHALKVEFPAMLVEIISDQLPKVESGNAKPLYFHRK

Progesterone receptor = biological target: T3, Progesterone receptor (Homo sapiens, UniProt P06401); assay: Binding affinity for progesterone receptor
T3 sequence (P06401 whole entry): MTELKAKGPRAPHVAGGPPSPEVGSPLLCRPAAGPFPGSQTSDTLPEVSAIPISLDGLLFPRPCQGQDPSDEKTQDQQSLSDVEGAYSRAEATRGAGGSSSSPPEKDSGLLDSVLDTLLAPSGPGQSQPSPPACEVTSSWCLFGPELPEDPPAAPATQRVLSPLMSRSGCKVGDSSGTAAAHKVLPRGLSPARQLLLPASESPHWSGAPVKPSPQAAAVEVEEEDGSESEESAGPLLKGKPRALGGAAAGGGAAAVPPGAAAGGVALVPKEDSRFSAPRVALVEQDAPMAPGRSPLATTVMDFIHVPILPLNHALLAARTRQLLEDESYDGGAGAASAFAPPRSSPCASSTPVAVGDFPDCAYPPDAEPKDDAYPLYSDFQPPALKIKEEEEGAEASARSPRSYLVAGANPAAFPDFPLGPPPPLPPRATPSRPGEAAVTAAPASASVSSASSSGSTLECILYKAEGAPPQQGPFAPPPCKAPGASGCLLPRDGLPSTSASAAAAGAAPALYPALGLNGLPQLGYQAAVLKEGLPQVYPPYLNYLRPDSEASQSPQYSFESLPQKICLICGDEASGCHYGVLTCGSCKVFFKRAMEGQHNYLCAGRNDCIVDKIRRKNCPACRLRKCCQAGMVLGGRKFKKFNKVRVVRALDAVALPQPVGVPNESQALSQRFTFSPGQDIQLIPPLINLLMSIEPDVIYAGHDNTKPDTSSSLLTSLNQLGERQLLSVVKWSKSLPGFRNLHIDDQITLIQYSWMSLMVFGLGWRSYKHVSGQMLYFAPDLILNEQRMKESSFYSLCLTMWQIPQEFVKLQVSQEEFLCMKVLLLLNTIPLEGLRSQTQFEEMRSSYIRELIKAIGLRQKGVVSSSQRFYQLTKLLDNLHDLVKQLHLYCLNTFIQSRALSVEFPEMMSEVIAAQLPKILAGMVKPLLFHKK

Glucocorticoid receptor [2] = biological target: T4, Glucocorticoid receptor (Homo sapiens, UniProt P04150); assay: Binding affinity for glucocorticoid receptor
T4 sequence (P04150 whole entry): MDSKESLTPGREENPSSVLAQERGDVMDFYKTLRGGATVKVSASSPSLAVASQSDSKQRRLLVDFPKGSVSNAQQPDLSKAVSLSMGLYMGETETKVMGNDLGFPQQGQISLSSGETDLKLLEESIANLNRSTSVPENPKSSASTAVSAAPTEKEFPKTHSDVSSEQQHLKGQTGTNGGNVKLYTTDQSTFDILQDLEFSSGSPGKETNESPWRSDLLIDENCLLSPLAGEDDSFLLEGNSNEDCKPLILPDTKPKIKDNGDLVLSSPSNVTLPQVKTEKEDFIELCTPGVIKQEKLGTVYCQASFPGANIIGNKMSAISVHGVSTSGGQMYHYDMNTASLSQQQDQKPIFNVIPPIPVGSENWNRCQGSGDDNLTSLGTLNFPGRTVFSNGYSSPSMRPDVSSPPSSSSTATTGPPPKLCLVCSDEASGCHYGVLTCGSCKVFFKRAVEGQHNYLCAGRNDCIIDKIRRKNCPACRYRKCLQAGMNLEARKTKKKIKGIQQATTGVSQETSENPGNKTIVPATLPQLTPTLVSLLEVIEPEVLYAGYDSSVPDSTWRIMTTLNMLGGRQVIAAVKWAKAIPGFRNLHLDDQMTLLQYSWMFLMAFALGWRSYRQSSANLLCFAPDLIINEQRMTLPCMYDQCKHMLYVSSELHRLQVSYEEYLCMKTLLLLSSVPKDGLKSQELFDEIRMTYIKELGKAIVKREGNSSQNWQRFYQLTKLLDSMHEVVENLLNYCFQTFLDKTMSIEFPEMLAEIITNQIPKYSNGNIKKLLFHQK

Estrogen receptor = Estrogen receptor (Homo sapiens, UniProt Q92731+P03372); assay: Binding affinity for estrogen receptor; format: protein assay
Glucocorticoid receptor [3] = biological target: T4, Glucocorticoid receptor; assay: Glucocorticoid-induced aromatase activity in human skin fibroblasts; format: functional
Glucocorticoid receptor [4] = biological target: T4, Glucocorticoid receptor; assay: Transcriptional activation in CV-1 cells expressing glucocorticoid receptor; format: functional, cell-based
Glucocorticoid receptor [5] = biological target: T4, Glucocorticoid receptor; assay: Repression activity of GR ligand with interleukin-6 receptor in native cell assay using Dexamethasone was determined as maximal potency; format: functional
Glucocorticoid receptor [6] = biological target: T4, Glucocorticoid receptor; assay: Transcriptional repression activity in HEP G2 cells expressing glucocorticoid receptor compared to Dexamethasone; format: functional, cell-based, HepG2
Glucocorticoid receptor [7] = biological target: T4, Glucocorticoid receptor; assay: Displacement of [3H]- Dexamethasone from glucocorticoid receptor
Glucocorticoid receptor [8] = biological target: T4, Glucocorticoid receptor; assay: Transcriptional repression of IL-1 stimulated IL-6 expression in native cells compared to Dexamethasone; format: functional, cell-based
Rattus norvegicus = species on record: Rattus norvegicus; assay: Anti-asthmatic effect as eosinophil influx in rat lung model; format: functional

Row | Ki (Androgen receptor) [nM] | Ki [1] [nM] | Ki (Progesterone receptor) [nM] | Ki (Glucocorticoid receptor [2]) [nM] | Ki (Estrogen receptor) [nM] | IC50 (Glucocorticoid receptor [3]) [nM] | IC50 (Glucocorticoid receptor [4]) [nM] | IC50 (Glucocorticoid receptor [5]) [nM] | IC50 (Glucocorticoid receptor [6]) [nM] | SMILES | other results
1 | > 5000 | > 5000 | > 5000 |  |  |  |  |  |  | COc1cccc2c1-c1ccc3c(c1C(c1cc(Cl)cc(Cl)c1)O2)C(C)=CC(C)(C)N3 (single isomer, unassigned; (+)) | 
2 |  |  | 1560 |  |  |  |  |  |  | COc1cccc2c1-c1ccc3c(c1C(c1cc(Cl)cc(Cl)c1)O2)C(C)=CC(C)(C)N3 (stereo in doubt; (-)22) | 
3 |  |  | > 5000 |  |  |  |  |  |  | COc1cccc2c1-c1ccc3c(c1C(c1cc(Cl)cc(Cl)c1)O2)C(C)=CC(C)(C)N3 (stereo in doubt; 17) | 
4 | > 5000 | > 5000 | > 5000 | 240 |  |  |  |  |  | COc1cccc2c1-c1ccc3c(c1C(c1ccccc1)O2)C(C)=CC(C)(C)N3 (stereo in doubt; (+)19) | 
5 |  |  |  |  |  | 56 | 10 | 11 | 9 | COc1cccc2c1-c1ccc3c(c1C(c1cc(F)cc(F)c1)O2)C(C)=CC(C)(C)N3 (stereo unspecified) | 
6 | 3360 | 493 |  | 11 | > 1000 | 105 | 44 | 32 | 57 | COc1cccc2c1-c1ccc3c(c1C(c1cccc(C(F)(F)F)c1)O2)C(C)=CC(C)(C)N3 (stereo unspecified) | 
7 |  |  | > 5000 | 2.1 |  |  |  |  |  | COc1cccc2c1-c1ccc3c(c1C(c1ccccc1)O2)C(C)=CC(C)(C)N3 (single isomer, unassigned; (-)) | IC50 (Glucocorticoid receptor [8]): 30 nM
8 | 2660 | 1680 | > 5000 | 4.7 | > 1000 | 164 | 300 | 51 | 123 | COc1cccc2c1-c1ccc3c(c1C(c1ccccc1)O2)C(C)=CC(C)(C)N3 (stereo in doubt; 10) | 
9 |  |  |  |  |  | 314 | 29 | 12 | 18 | COc1cccc2c1-c1ccc3c(c1C(c1cc(C)cc(Br)c1)O2)C(C)=CC(C)(C)N3 (stereo unspecified) | 

More lines, now with the values behind:

Row | SMILES | Ki (Androgen receptor) [nM] | Ki [1] [nM] | Ki (Progesterone receptor) [nM] | Ki (Glucocorticoid receptor [2]) [nM] | Ki (Estrogen receptor) [nM] | IC50 (Glucocorticoid receptor [3]) [nM] | IC50 (Glucocorticoid receptor [4]) [nM] | IC50 (Glucocorticoid receptor [5]) [nM] | IC50 (Glucocorticoid receptor [6]) [nM] | other results
10 | CC1=CC(C)(C)Nc2ccc3c(c21)C(c1ccccc1)Oc1ccc(Cl)cc1-3 (stereo unspecified) | 1400 | 1100 | 53 | 9.3 | > 1000 |  |  |  |  | 
11 | COc1cccc2c1-c1ccc3c(c1C(c1cc(C)cc(C)c1)O2)C(C)=CC(C)(C)N3 (stereo unspecified) |  |  |  |  |  | 146 | 24 | 9.2 | 18 | 
12 | COc1cccc2c1-c1ccc3c(c1C(c1cccc(OC(=O)N(C)C)c1)O2)C(C)=CC(C)(C)N3 (stereo unspecified) | 3070 | 3910 | > 5000 |  | > 1000 | 216 | 12 | 26 | 6 | Ki (Glucocorticoid receptor [7]): 2.4 nM
13 | COCOc1cccc(C2Oc3cccc(OC)c3-c3ccc4c(c32)C(C)=CC(C)(C)N4)c1 (stereo unspecified) |  |  |  |  |  | 131 | 28 | 49 | 23 | 
14 | COc1ccc2c(c1)OC(c1ccccc1)c1c-2ccc2c1C(C)=CC(C)(C)N2 (stereo unspecified) |  |  | > 5000 | 1800 |  |  |  |  |  | 
15 | C[C@]12C=CC(=O)C=C1CC[C@@H]1[C@@H]2[C@@H](O)C[C@@]2(C)[C@H]1CC[C@]2(O)C(=O)CO [PREDNISOLONE] |  | 37 |  |  | > 1000 |  |  |  |  | ED50 (Rattus norvegicus): 1.2 mg/kg
16 | COc1ccc2c(c1)-c1ccc3c(c1C(c1ccccc1)O2)C(C)=CC(C)(C)N3 (stereo unspecified) |  |  | 390 | 18 |  |  |  |  |  | 
